Laboratory results reported in US20140178433A1, “[…] INCREASED ANTIGENIC MASS” (priority 2012, published 2014).

Columns and labels:
[1] = system: Leptospira of serogroup Icterohaemorrhagiae; test: Antigenic mass of fermenter culture by antigen Elisa, serogroup Icterohaemorrhagiae; format: cell-based, L. interrogans (sensu lato); conditions: for antigenic mass: average of days 3-5; for Ag. mass, average of days 4-5, Ag U/10^9 cells/ml: standard BSA, total 105 μg/ml; for Ag. mass, average of days 3-5, Ag U/10^9 cells/ml: EMJH with standard BSA; for relative Ag. mass (%), average of days 4-5: relative to non-supplemented = 100; for Ag U/10^9 cells/ml, at 3 days: different BSA ingredients in EMJH medium, no supplementation
Protocol: (§1) During all fermentation experiments the temperature was controlled at about 29° C. The medium was aerated with headspace airflow, and the dissolved oxygen (pO2) concentration was controlled by automatic variation of the agitation-rate, to maintain a set pO2 concentration. Temperature, pH and pO2 concentration were monitored online, but pH and foam formation were not controlled.
(§2) Supplementation was done either with pure linoleic acid (Sigma Aldrich, >99% pure) as a 10% v/v stock in absolute ethanol (JT Baker). Alternatively, linoleic acid was supplemented by using a BSA that was created with a high level of linoleic acid (high LA BSA). This high LA BSA was used either to replace a standard BSA in EMJH medium, or was used in addition to BSA in the EMJH medium, in which case it was added as a 25% w/v stock solution in sterile water. The high LA BSA or the pure linoleic acid/ethanol supplements were fed to a fermentor over the course of 4 hours, at 0.1-0.2 ml/hour, until the fermentor culture had received a desired total amount of linoleic acid. Different total available levels of linoleic acid have been tested, of between about 5 and 425 μg/ml in the total volume. The fermenter cultures of Leptospira were supplemented at different cell-densities i.e. at early-, mid- or end phase culture. Typical mid-phase cell density was at about 5×10̂8 cells/ml, which was reached during day 2 of the main incubation. Upon supplementation with linoleic acid from the pure linoleic acid in ethanol stock, sometimes a small decrease in pH was noted, which was corrected by applying some NaOH.
(§3) 2004. Royal Tropical Institute, Amsterdam.
An arbitrary number of antigen units is affixed to the sample, for example: 1000 Units/ml.

[2] = system: Leptospira from serogroup Grippotyphosa; test: Antigenic mass of fermenter culture by antigen Elisa, serogroup Grippotyphosa; format: cell-based, L. interrogans (sensu lato); conditions: for Antigenic mass, 2 day average, Ag U/10^9 cells/ml: average of days 4 and 5
Protocol: as §2, §3
(§4) In a next study it was confirmed that the increase in antigenic mass upon supplementation with linoleic acid is a general phenomenon in Leptospira. In several experiments cultures of Leptospira strains from several serogroups were proliferated in fermenters in similar set-ups as before and with a similar supplementation: in EMJH medium with either standard BSA or with high LA BSA; some cultures were further supplemented with 100 μg/ml linoleic acid, from pure linoleic acid in ethanol. Results of analyses of biomass and antigen amount are presented in FIGS. 6-7 (Sejroe), and 8-9 (Grippotyphosa), and are summarised in Table 5.
For serogroup Grippotyphosa the scores were averaged over days 4 and 5 of the culture.

[3] = system: Leptospira from serogroup Australis (serovar Bratislava); test: Antigenic mass of fermenter culture by antigen Elisa, serogroup Australis; format: cell-based, L. interrogans (sensu lato)
Protocol: as §2, §3, §4
Similarly, for serogroup Australis (serovar Bratislava), an increase in antigenic mass with 45% was observed; here the low LA BSA medium was used for supplementation.

Leptospira culture = test: Linoleic acid supplementation of a Leptospira culture, serogroup not stated; format: cell-based
Protocol: as §2

[4] = system: Leptospira from serogroup Sejroe (serovar Hardjo); test: Antigenic mass of fermenter culture by antigen Elisa, serogroup Sejroe; format: cell-based, L. interrogans (sensu lato); conditions: for Antigenic mass, 2 day average, Ag U/10^9 cells/ml: average of days 5 and 6
Protocol: as §2, §3, §4
Some increase in biomass was observed after supplementation, but the increase in antigen amount was much higher. The fermenter was run for 6 days, and scores for these experiments were averaged over days 5 and 6 of the culture.

[5] = system: Leptospira of serogroup Icterohaemorrhagiae; test: Biomass (total cell count, Petroff-Hausser counting chamber) of fermenter culture, serogroup Icterohaemorrhagiae; format: cell-based, L. interrogans (sensu lato)
Protocol: as §1
as §2, with “Typical mid-phase cell density was at about 5×10̂8 cells/ml, which was reached during day 2 of the main incubation. Upon supplementation with linoleic acid from the pure linoleic acid in ethanol stock, sometimes a small decrease in pH was noted, which was corrected by applying some NaOH.” left out

[6] = 100 μg/ml added, total 125 μg/ml, relative to high LA BSA culture = 100
[7] = 100 μg/ml pure linoleic acid in ethanol added to high LA BSA medium, C18:2 total 125 μg/ml
[8] = EMJH with high LA BSA, C18:2 total 25 μg/ml
[9] = EMJH with high LA BSA, C18:2 total 25 μg/ml, serves as reference = 100

CCCCCC=CCC=CCCCCCCCC(=O)O [linoleic acid, 9,12-octadecadienoic acid]
antigenic mass ([1]; 100 μg/ml pure linoleic acid in ethanol added on day 2 (mid-exponential), EMJH with high LA BSA): 1767 Ag. U/1×10̂9 cells
Ag. mass, average of days 4-5, Ag U/10^9 cells/ml ([1]; 100 μg/ml pure linoleic acid in ethanol supplemented at 1 × 10^8 cells/ml (early phase)): 1783 Ag U/10^9 cells/ml
Ag. mass, average of days 4-5, Ag U/10^9 cells/ml ([1]; 100 μg/ml pure linoleic acid in ethanol supplemented at 5 × 10^8 cells/ml (mid phase)): 1564 Ag U/10^9 cells/ml
Ag. mass, average of days 4-5, Ag U/10^9 cells/ml ([1]; 100 μg/ml pure linoleic acid in ethanol supplemented at 9 × 10^8 cells/ml (late phase)): 1656 Ag U/10^9 cells/ml
increase in antigenic mass after supplementation at different phases ([1]; 100 μg/ml, early-, mid-, late exponential phase, sampling at 2, 4 and 8 hours after the suppletion): acute increase in antigenic mass can be induced at all phases of the Leptospira culture
increase of the antigenic mass ([1]; 200 μg/ml pure linoleic acid in ethanol, EMJH with high LA BSA): slightly less increase of the antigenic mass compared to that of the 100 μg/ml group
increase of the antigenic mass ([1]; exemplary increase following application of the method (linoleic acid supplementation)): 121%
Ag. mass, average of days 3-5, Ag U/10^9 cells/ml ([1]; supplemented 75 μg/ml in mid-exponential phase, C18:2 total 80 μg/ml): 1450 Ag U/10^9 cells/ml
relative Ag. mass (%), average of days 3-5 ([1]; supplemented 75 μg/ml, C18:2 total 80 μg/ml, relative to non-supplemented culture with standard BSA = 100): 199%
Ag. mass, average of days 3-5, Ag U/10^9 cells/ml ([1]; supplemented 150 μg/ml in mid-exponential phase, C18:2 total 155 μg/ml): 1550 Ag U/10^9 cells/ml
relative Ag. mass (%), average of days 3-5 ([1]; supplemented 150 μg/ml, C18:2 total 155 μg/ml, relative to non-supplemented culture with standard BSA = 100): 213%
relative Ag. mass (%), average of days 4-5 ([1]; supplemented at 1 × 10^8 cells/ml, 100 μg/ml): 226%
relative Ag. mass (%), average of days 4-5 ([1]; supplemented at 5 × 10^8 cells/ml, 100 μg/ml): 198%
relative Ag. mass (%), average of days 4-5 ([1]; supplemented at 9 × 10^8 cells/ml, 100 μg/ml): 210%
relative Ag. mass (%) [2, 6]: 163%
Antigenic mass, 2 day average, Ag U/10^9 cells/ml [2, 7]: 8286 Ag U/10^9 cells/ml
increase of the antigenic mass ([2]; supplementation with linoleic acid (100 μg/ml) of high LA BSA medium): 63%
relative Ag. mass (%) ([3]; 100 μg/ml added, total 105 μg/ml, relative to non-supplemented culture = 100): 145%
Antigenic mass, 2 day average, Ag U/10^9 cells/ml ([3]; 100 μg/ml pure linoleic acid added to low LA BSA medium, C18:2 total 105 μg/ml): 12822 Ag U/10^9 cells/ml
increase of the antigenic mass ([3]; supplementation of low LA BSA medium): 45%
increase of the antigenic mass (Leptospira culture; 25 μg linoleic acid available per ml of culture compared to about 5 μg/ml): significant increase of the antigenic mass
toxicity (Leptospira culture; highest availability level tested, 425 μg/ml, preparation of pure linoleic acid): some toxicity was noticeable for some serovars
relative Ag. mass (%) [4, 6]: 284%
Antigenic mass, 2 day average, Ag U/10^9 cells/ml [4, 7]: 814 Ag U/10^9 cells/ml
increase of the antigenic mass ([4]; supplementation with 100 μg/ml linoleic acid of high LA BSA culture medium): 184%
toxicity for the bacteria (cell numbers decreased rapidly after supplementation) ([5]; 400 μg/ml pure linoleic acid in ethanol, EMJH with high LA BSA): induced toxicity

BSA, BovoLep ®: BSA (Bovogen, Australia) recommended for Leptospira culture; standard BSA enriched with a number of vegetable fatty acids
effect on antigenic mass ([1]; BSA ingredient in EMJH medium): no significant effect
Ag U/10^9 cells/ml, at 3 days [1]: 498 Ag U/10^9 cells/ml
effect on biomass of Leptospira ([5]; BSA ingredient in EMJH medium): did increase the biomass

BSA, BovoStar ®: a standard all-purpose BSA from the same manufacturer (Bovogen)
Ag U/10^9 cells/ml, at 3 days [1]: 533 Ag U/10^9 cells/ml

BSA, Millipore: a standard commercial BSA (Millipore)
Ag U/10^9 cells/ml, at 3 days [1]: 525 Ag U/10^9 cells/ml

high LA BSA: BSA that was created with a high level of linoleic acid
increase of antigenic mass ([1]; 25 instead of 5 μg/ml linoleic acid available): 124%
antigenic mass ([1]; high LA BSA at 1% w/v in EMJH, 25 μg/ml linoleic acid available): 1636 Ag U/1×10̂9 cells
Ag. mass, average of days 3-5, Ag U/10^9 cells/ml ([1]; supplemented 50 μg/ml linoleic acid as high LA BSA solution, C18:2 total 55 μg/ml): 1612 Ag U/10^9 cells/ml
relative Ag. mass (%), average of days 3-5 ([1]; supplemented 50 μg/ml linoleic acid as high LA BSA, C18:2 total 55 μg/ml, relative to non-supplemented culture = 100): 221%
Antigenic mass, 2 day average, Ag U/10^9 cells/ml [2, 8]: 5074 Ag U/10^9 cells/ml
relative Ag. mass (%) [2, 9]: 100%
Antigenic mass, 2 day average, Ag U/10^9 cells/ml [4, 8]: 287 Ag U/10^9 cells/ml
relative Ag. mass (%) [4, 9]: 100%
